The source of these data is ChEMBL document CHEMBL1909046, “DrugMatrix in vitro pharmacology data”.

One experiment concerns the target Histamine H2 receptor (Homo sapiens, UniProt P25021). It counts as cell membranes, CHO-K1, Membrane. The following applies: cho-k1. Also: in other assays of this panel Not Active means under 50% inhibition at 10 µM.
For another experiment, the target named is T1, Leukotriene C4 synthase (Cavia porcellus, UniProt A6XA80).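 Also: enzyme inhibition assay of leukotriene C4 synthase, using LTA4 as the substrate; in other assays of this panel Not Active means under 50% inhibition at 10 µM.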
T1 sequence (A6XA80 whole entry): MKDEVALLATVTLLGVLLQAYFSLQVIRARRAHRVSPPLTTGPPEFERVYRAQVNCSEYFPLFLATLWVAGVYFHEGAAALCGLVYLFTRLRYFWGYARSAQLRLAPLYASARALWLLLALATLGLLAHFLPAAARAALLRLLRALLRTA
It counts as tissue-based, Lung.

The target of experiment [1] is Beta-2 adrenergic receptor (Homo sapiens, UniProt P07550). The experiment can be described thus: DRUGMATRIX: Adrenergic beta2 radioligand binding (ligand: [3H] CGP-12177). The note with it: cho; Not Active = under 50% inhibition at 10 µM. It counts as cell membranes, Membrane.
A further experiment concerns the target T2, D(4) dopamine receptor (Homo sapiens, UniProt P21917).
T2 sequence (P21917 whole entry): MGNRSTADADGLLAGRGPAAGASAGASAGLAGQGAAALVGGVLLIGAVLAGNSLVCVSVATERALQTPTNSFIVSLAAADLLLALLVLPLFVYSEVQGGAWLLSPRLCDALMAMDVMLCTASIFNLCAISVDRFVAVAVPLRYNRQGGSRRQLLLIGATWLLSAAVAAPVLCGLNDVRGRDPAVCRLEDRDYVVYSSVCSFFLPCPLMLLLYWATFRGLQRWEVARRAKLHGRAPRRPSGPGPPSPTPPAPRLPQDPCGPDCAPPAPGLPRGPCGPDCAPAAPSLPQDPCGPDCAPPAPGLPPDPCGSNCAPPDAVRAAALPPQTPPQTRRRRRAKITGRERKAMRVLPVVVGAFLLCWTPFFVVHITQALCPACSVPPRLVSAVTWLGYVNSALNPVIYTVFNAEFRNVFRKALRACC
The experiment can be described thus: DRUGMATRIX: Dopamine D4.2 radioligand binding (ligand: [3H] Spiperone). It counts as cell membranes, CHO-K1, Membrane. The note with it: Not Active = under 50% inhibition at 10 µM; for Ki: read-out: Ki.

Experiment [2] has as its target Protein phosphatase 3 catalytic subunit alpha (Homo sapiens, UniProt Q08209). Details: species or system Escherichia coli.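 Also: inhibition of calcineurin (PP2B) enzyme activity, measured with DiFMUP as the substrate; in other assays of this panel Not Active means under 50% inhibition at 10 µM.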
For experiment [3], the target named is 5-hydroxytryptamine receptor 2B (Homo sapiens, UniProt P41595). The experiment is classed as cell membranes, CHO-K1, Membrane. The note with it: for Ki: read-out: Ki. As to all read-outs here: in other assays of this panel Not Active means under 50% inhibition at 10 µM.
Chain of 5-hydroxytryptamine receptor 2B (P41595 whole entry): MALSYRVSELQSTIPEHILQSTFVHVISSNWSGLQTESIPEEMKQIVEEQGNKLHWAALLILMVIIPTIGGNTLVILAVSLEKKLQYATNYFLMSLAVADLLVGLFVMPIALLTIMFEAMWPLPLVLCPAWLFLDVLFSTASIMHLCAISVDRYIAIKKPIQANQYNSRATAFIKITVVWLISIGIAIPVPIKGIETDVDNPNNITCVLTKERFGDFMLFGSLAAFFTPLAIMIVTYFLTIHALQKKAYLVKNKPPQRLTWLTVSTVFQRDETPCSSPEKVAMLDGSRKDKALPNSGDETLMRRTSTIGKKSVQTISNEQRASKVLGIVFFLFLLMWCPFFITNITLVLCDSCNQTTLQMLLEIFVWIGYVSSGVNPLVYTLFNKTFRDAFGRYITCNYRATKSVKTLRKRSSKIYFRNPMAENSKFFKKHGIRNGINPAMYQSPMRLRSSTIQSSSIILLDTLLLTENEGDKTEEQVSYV

Chain of Beta-2 adrenergic receptor (P07550 whole entry): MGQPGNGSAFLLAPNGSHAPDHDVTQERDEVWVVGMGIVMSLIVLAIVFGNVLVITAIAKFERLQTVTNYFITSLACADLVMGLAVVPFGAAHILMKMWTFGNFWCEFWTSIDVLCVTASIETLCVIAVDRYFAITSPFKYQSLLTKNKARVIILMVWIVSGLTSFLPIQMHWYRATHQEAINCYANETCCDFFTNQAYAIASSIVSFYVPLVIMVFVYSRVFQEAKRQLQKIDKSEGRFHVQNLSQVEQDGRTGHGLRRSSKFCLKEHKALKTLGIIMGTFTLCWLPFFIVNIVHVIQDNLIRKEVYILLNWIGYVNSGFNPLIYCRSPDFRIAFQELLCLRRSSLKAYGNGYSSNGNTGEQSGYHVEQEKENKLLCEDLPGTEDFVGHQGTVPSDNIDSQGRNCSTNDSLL
Chain of Histamine H2 receptor (P25021 whole entry): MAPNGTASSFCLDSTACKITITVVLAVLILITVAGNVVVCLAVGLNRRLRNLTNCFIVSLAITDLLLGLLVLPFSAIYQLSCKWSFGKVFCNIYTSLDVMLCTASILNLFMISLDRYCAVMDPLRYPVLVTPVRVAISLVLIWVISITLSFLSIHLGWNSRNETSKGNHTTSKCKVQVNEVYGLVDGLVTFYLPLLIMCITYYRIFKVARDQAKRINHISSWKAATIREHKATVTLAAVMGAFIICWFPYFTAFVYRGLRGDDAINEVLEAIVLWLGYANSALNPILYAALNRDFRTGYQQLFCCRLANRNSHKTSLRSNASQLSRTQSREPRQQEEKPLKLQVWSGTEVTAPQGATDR

Broadly, the IC50 is the concentration at which inhibition is half-maximal. As for `CC(C)(C)NC(=O)[C@@H]1C[C@@H]2CCCC[C@@H]2CN1C[C@@H](O)[C@H](Cc1ccccc1)NC(=O)[C@H](CC(N)=O)NC(=O)c1ccc2ccccc2n1`, the IC50 result (on Histamine H2 receptor; against Leukotriene C4 synthase; in experiment [1]; on D(4) dopamine receptor (cho-k1); in experiment [2]; in experiment [3] (cho-k1)) was “Not Active” throughout.

For the compound `CC1(C)O[C@@H]2C[C@H]3[C@@H]4CCC5=CC(=O)C=C[C@]5(C)[C@@]4(F)[C@@H](O)C[C@]3(C)[C@]2(C(=O)CO)O1` [TRIAMCINOLONE ACETONIDE], the IC50 result (at Histamine H2 receptor; against Leukotriene C4 synthase; in experiment [1]; on D(4) dopamine receptor (cho-k1); in experiment [2]; in experiment [3] (cho-k1)) was “Not Active” throughout.

The Ki is the equilibrium dissociation constant of an inhibitor or competing ligand from its target. Regarding `Cc1cccc(N(C)C(=S)Oc2ccc3ccccc3c2)c1` [TOLNAFTATE], the IC50 entry was “Not Active” against Histamine H2 receptor; “Not Active” against Leukotriene C4 synthase; “Not Active” in experiment [1]; “Not Active” on D(4) dopamine receptor (cho-k1); “Not Active” in experiment [2]; 2010 nM in experiment [3] (read-out: IC50). In addition, the Ki in experiment [3] worked out at 1280 nM.

As to `C[C@@H]1CN(c2c(F)c(N)c3c(=O)c(C(=O)O)cn(C4CC4)c3c2F)C[C@H](C)N1` [SPARFLOXACIN], the IC50 result (on Histamine H2 receptor; against Leukotriene C4 synthase; in experiment [1]; at D(4) dopamine receptor (cho-k1); in experiment [2]; in experiment [3] (cho-k1)) was “Not Active” each time.

Turning to `Cn1ccnc1S` [METHIMAZOLE], the IC50 result (at Histamine H2 receptor; on Leukotriene C4 synthase; in experiment [1]; at D(4) dopamine receptor (cho-k1); in experiment [2]; in experiment [3] (cho-k1)) was “Not Active” in each case.

With `CN1CCN(CCCN2c3ccccc3Sc3ccc(Cl)cc32)CC1` [PROCHLORPERAZINE], the IC50 entry against Histamine H2 receptor is “Not Active”; against Leukotriene C4 synthase it was “Not Active”; in experiment [1], “Not Active”; at D(4) dopamine receptor (read-out: IC50) it was 2310 nM; in experiment [2] it was “Not Active”. Further, the Ki on D(4) dopamine receptor came out at 810 nM.

As for `C=CCC1(C(C)CCC)C(=O)NC(=O)NC1=O` (stereo unspecified) [SECOBARBITAL], the IC50 result (against Histamine H2 receptor; against Leukotriene C4 synthase; in experiment [1]; on D(4) dopamine receptor (cho-k1); in experiment [2]; in experiment [3] (cho-k1)) was “Not Active” throughout.

For `N[C@@H](Cc1ccc(N(CCCl)CCCl)cc1)C(=O)O`, the IC50 result (at Histamine H2 receptor; against Leukotriene C4 synthase; in experiment [1]; at D(4) dopamine receptor (cho-k1); in experiment [2]; in experiment [3] (cho-k1)) was “Not Active” in each case.

For the compound `Nc1nc2ccc(OC(F)(F)F)cc2s1` [RILUZOLE], the half-inhibitory concentration (IC50) entry (against Histamine H2 receptor; against Leukotriene C4 synthase; in experiment [1]; on D(4) dopamine receptor (cho-k1); in experiment [2]; in experiment [3] (cho-k1)) was “Not Active” throughout.

Take `N[C@@H]1[C@H]2CN(c3nc4c(cc3F)c(=O)c(C(=O)O)cn4-c3ccc(F)cc3F)C[C@@H]12` [TROVAFLOXACIN]: the IC50 entry (on Histamine H2 receptor; against Leukotriene C4 synthase; in experiment [1]; on D(4) dopamine receptor (cho-k1); in experiment [2]; in experiment [3] (cho-k1)) was “Not Active” in each case.

As to `COc1c(C)c2c(c(O)c1C/C=C(\C)CCC(=O)O)C(=O)OC2` [MYCOPHENOLIC ACID], the IC50 entry (against Histamine H2 receptor; on Leukotriene C4 synthase; in experiment [1]; on D(4) dopamine receptor (cho-k1); in experiment [2]; in experiment [3] (cho-k1)) was “Not Active” each time.

For `CCCOc1ccccc1-c1nc2nn[nH]c2c(=O)[nH]1` [ZAPRINAST], the IC50 result (against Histamine H2 receptor; on Leukotriene C4 synthase; in experiment [1]; at D(4) dopamine receptor (cho-k1); in experiment [2]; in experiment [3] (cho-k1)) was “Not Active” throughout.

`Nc1nc2nc[nH]c2c(=S)[nH]1` [THIOGUANINE]: the IC50 entry (against Histamine H2 receptor; against Leukotriene C4 synthase; in experiment [1]; at D(4) dopamine receptor (cho-k1); in experiment [2]; in experiment [3] (cho-k1)) was “Not Active” in each case.

Regarding `Cc1c(C)c2c(c(C)c1O)CCC(C)(COc1ccc(CC3SC(=O)NC3=O)cc1)O2` (stereo unspecified) [TROGLITAZONE], the IC50 result is “Not Active” on Histamine H2 receptor; “Not Active” at Leukotriene C4 synthase; “Not Active” in experiment [1]; “Not Active” at D(4) dopamine receptor (cho-k1); “Not Active” in experiment [2]; 1310 nM in experiment [3] (read-out: IC50). Further, in experiment [3], the Ki is 835 nM.

Turning to `Cc1nc2n(c(=O)c1CCN1CCC(c3noc4cc(F)ccc34)CC1)CCCC2` [RISPERIDONE], the IC50 result (against Leukotriene C4 synthase; in experiment [1]; on D(4) dopamine receptor (cho-k1); in experiment [2]) was “Not Active” in each case.

Regarding `COc1nc(C)nc(Cl)c1NC1=NCCN1` [MOXONIDINE], the IC50 result (against Histamine H2 receptor; on Leukotriene C4 synthase; in experiment [1]; at D(4) dopamine receptor (cho-k1); in experiment [2]; in experiment [3] (cho-k1)) was “Not Active” throughout.

Regarding `N[C@@H](Cc1cc(I)c(Oc2ccc(O)c(I)c2)c(I)c1)C(=O)O` [LIOTHYRONINE], the half-inhibitory concentration (IC50) entry (against Histamine H2 receptor; against Leukotriene C4 synthase; in experiment [1]; at D(4) dopamine receptor (cho-k1); in experiment [2]; in experiment [3] (cho-k1)) was “Not Active” throughout.

In the case of `OCCN(CCO)c1nc(N2CCCCC2)c2nc(N(CCO)CCO)nc(N3CCCCC3)c2n1` [DIPYRIDAMOLE], the IC50 entry (against Histamine H2 receptor; on Leukotriene C4 synthase; in experiment [1]; on D(4) dopamine receptor (cho-k1); in experiment [2]; in experiment [3] (cho-k1)) was “Not Active” in each case.

On to `O=NN(CCCl)C(=O)NC1CCCCC1` [LOMUSTINE], for which the IC50 result (against Histamine H2 receptor; on Leukotriene C4 synthase; in experiment [1]; on D(4) dopamine receptor (cho-k1); in experiment [2]; in experiment [3] (cho-k1)) was “Not Active” throughout.

With `O=c1ncn2nc(Sc3ccc(F)cc3F)ccc2c1-c1c(Cl)cccc1Cl` [NEFLAMAPIMOD], the IC50 result (at Histamine H2 receptor; on Leukotriene C4 synthase; in experiment [1]; on D(4) dopamine receptor (cho-k1); in experiment [2]; in experiment [3] (cho-k1)) was “Not Active” throughout.

Consider `CC[C@]1(O)C[C@H]2CN(CCc3c([nH]c4ccccc34)[C@@](C(=O)OC)(c3cc4c(cc3OC)N(C=O)[C@H]3[C@@](O)(C(=O)OC)[C@H](OC(C)=O)[C@]5(CC)C=CCN6CC[C@]43[C@@H]65)C2)C1` [VINCRISTINE], for which the IC50 result (against Histamine H2 receptor; on Leukotriene C4 synthase; in experiment [1]; on D(4) dopamine receptor (cho-k1); in experiment [2]; in experiment [3] (cho-k1)) was “Not Active” throughout.

Regarding `CCCCc1oc2ccccc2c1C(=O)c1cc(I)c(OCCN(CC)CC)c(I)c1` [AMIODARONE], the IC50 result was “Not Active” against Leukotriene C4 synthase, “Not Active” in experiment [1], 17700 nM on D(4) dopamine receptor (read-out: IC50) and “Not Active” in experiment [2]. For the same compound, the Ki on D(4) dopamine receptor amounted to 6210 nM.

In the case of `CCOC(=O)N1CCC(=C2c3ccc(Cl)cc3CCc3cccnc32)CC1` [LORATADINE], the IC50 entry (on Histamine H2 receptor; on Leukotriene C4 synthase; in experiment [1]; at D(4) dopamine receptor (cho-k1); in experiment [2]) was “Not Active” throughout.
